Measurements as given in paper PMC6359543, “Efficacy of Azatyrosine-Phenylbutyric Hydroxamides, a Histone Deacetylase Inhibitor, on Chemotherapy-Induced Gastrointestinal Mucositis” (International Journal of Molecular Sciences, 2019).
Like-named read-outs stand apart in the source and are kept apart here.

How the values were obtained:
Pan HDAC enzyme = assay: HDAC fluorometric activity assay, pan HDAC; format: biochemical
Experimental: Pan HDAC enzyme (all the known class I HDACs-HDAC1, HDAC2, HDAC3, HDAC8 and class II HDACs 4-7, 9 and 10), HDAC subtype 1, 3 and 4 activity were determined by using the HDAC fluorometric cellular activity assay (Enzo Life Sciences, Farmingdale, NY, USA) according to the manufacturer’s protocol. […] Percent activity for each of the test compounds is calculated as follows:
Activity = {(Sc − B)/(S° − B)} × 100. […] IC50 was then calculated and represented as mean ± SD.

[1] = tested on: Salmonella typhimurium TA98; assay: Salmonella/microsome reversion assay (Ames test), TA98; format: cell-based
male ICR mice = assay: Micronucleus test; settings: mouse, in vivo
Experimental: Male ICR mice (n = 5) were administered AzP orally by gavage, at doses of 5, 50, and 500 mg/kg body weight. […] At 24, 48, and 72 h after dosing, 2-μL blood samples were collected from the tail vein onto a slide stained with acridine orange (40 μg/mL). The ratio (%) of polychromatic erythrocytes (PCEs) to total erythrocytes was determined using fluorescence microscopy. In addition, the frequency of micronucleated polychromatic erythrocytes (MNPCEs; ‰) was counted to a total of 1000 erythrocytes or PCEs per animal.

IEC-6 cells [2] = assay: LPS-induced inflammatory protein expression in IEC-6 cells (Western blot); format: cell-based, Rat; settings: LPS 500 ng/mL 8 h, AzP 1–20 μM
Experimental: Figure 5 Hierarchical clustering and KEGG analyses of gene profiles of the AzP-manipulated IEC-6 cells. (A) Two independent experiments were performed, samples were named C1, C2 as control group (1% dimethyl sulfoxide (DMSO)); LPS1, LPS2 as lipopolysaccharide (LPS) 500 ng/mL group; LPS + AzP1, LPS + AzP2 as LPS 500 ng/mL and AzP 20 μM group. Heat maps showing the clustering analysis of the IEC-6 cells with different treatments (1% DMSO, LPS 500 ng/mL and/or AzP 20 μM) indicates up-regulation (red), down-regulation (green), and mean gene expression (black). […] IEC-6 cells were treated with LPS 500 ng/mL for 8 h and/or AzP 1–20 μM, Western blot performed and immunoblotted with several inflammatory protein expressions including MMP-9 (C), IL-1β (D), iNOS (E), and IL-6 (F). Density was measured and calculated. ### p < 0.001 as compared with the control, ## p < 0.01 as compared with the control, # p < 0.05 as compared with the control, * p < 0.05 as compared with the LPS-treated group, ** p < 0.01 as compared with the LPS-treated group and *** p < 0.001 as compared with LPS-treated group.
(§1) IEC-6 cells were incubated in different AzP concentrations with/without LPS stimulation for 24 h. The homogenate from cells or tissues was then centrifuged at 14,000× g for 10 min at 4 °C and the supernatant was collected. Protein separation was performed using 10% reducing SDS-PAGE, electrotransferred onto polyvinylidene difluoride (PVDF), and immunoblotted with antibodies against inflammatory proteins as well as β-actin as control. Densitometry was performed using BioLight software V2000.01 (Uhldingen-Mühlhofen, Germany). The optical density of specific protein was normalized to an internal control and expressed as a ratio to control.

IEC-6 cells [3] = assay: LPS-induced MAPK/Akt phosphorylation in IEC-6 cells (Western blot); format: cell-based, Rat
Experimental: Figure 6 Western blotting of IEC-6 cells treated with LPS and/or AzP. (A) IEC-6 cells (1 × 10^6 cells/mL) were dispensed on 6 cm dishes and (A) treated with LPS (500 ng/mL) for 10, 20, 30, 60, and 90 min. Data expressed as means ± SD from 3 independent experiments. * p < 0.05 as compared with the resting. (B) Treatment with LPS (500 ng/mL) for 10 min as indicated. Cells were treated with the indicated concentrations of AzP (5, 10, and 20 μM) or vehicle for 30 min before treatment with LPS. Cell lysates were collected for Western blot targeting p-ERK phosphorylation (Thr202/Tyr204, B), MEK phosphorylation ([…], C), and Akt phosphorylation (Ser473, D). Data expressed as means ± SD from 3 independent experiments. ### p < 0.001 as compared with the resting, * p < 0.05, ** p < 0.01 and *** p < 0.001 as compared with the vehicle.
as §1

acetyl-histone H3 = assay: Western blot of acetyl-histone H3 in IEC-6 cells; format: cell-based, Rat; settings: AzP 5, 10 and 20 μM, 24 h
Experimental: Figure 3 In vitro histone deacetylase (HDAC) activity. […] Cell lysates were used for acetyl-histone H3 protein expression by Western blot. Data are expressed as means ± SD from 3 independent experiments. *** p < 0.001 as compared with the resting and ** p < 0.01 as compared with the resting (B).
as §1

[4] = tested on: Salmonella typhimurium TA1537; assay: Salmonella/microsome reversion assay (Ames test), TA1537; format: cell-based

SMILES: CC(C)(C)OC(=O)NC(Cc1ccc(OCc2ccccc2)cn1)C(=O)Nc1ccc(CCCC(=O)NO)cc1 (centres unmarked) [AzP, Azatyrosine-phenylbutyric hydroxamides]
- IC50 (Pan HDAC enzyme): 1.65 ± 0.103 µM
- Ames test result, TA98 (-S9) ([1]; -S9): Negative
- Revertant colonies per plate (+S9) TA98 ([1]; AzP 0.00245 mg/plate): 59.7±3.8
- Revertant colonies per plate (-S9) TA98 ([1]; AzP 0.00245 mg/plate): 42±4.6
- Revertant colonies per plate (+S9) TA98 ([1]; AzP 0.0049 mg/plate): 58.3±4.7
- Revertant colonies per plate (-S9) TA98 ([1]; AzP 0.0049 mg/plate): 29±5.7
- Revertant colonies per plate (+S9) TA98 ([1]; AzP 0.0098 mg/plate): 56.3±3.4
- Revertant colonies per plate (-S9) TA98 ([1]; AzP 0.0098 mg/plate): 24±5.4
- Revertant colonies per plate (+S9) TA98 ([1]; AzP 0.0195 mg/plate): 59.7±0.7
- Revertant colonies per plate (-S9) TA98 ([1]; AzP 0.0195 mg/plate): 33.7±3
- Revertant colonies per plate (+S9) TA98 ([1]; AzP 0.0391 mg/plate): 62.7±2.3
- Revertant colonies per plate (-S9) TA98 ([1]; AzP 0.0391 mg/plate): 33.7±2.8
- Revertant colonies per plate (+S9) TA98 ([1]; AzP 0.0781 mg/plate): 56.3±2.2
- Revertant colonies per plate (+S9) TA98 ([1]; AzP 0.156 mg/plate): 61±1.2
- Revertant colonies per plate (+S9) TA98 ([1]; AzP 0.3125 mg/plate): 69.7±5.8
- Revertant colonies per plate (+S9) TA98 ([1]; AzP 0.625 mg/plate): 64±2.9
- Ames test result, TA98 (|S9) ([1]; second S9 group): Negative
- Micronucleus Test result (male ICR mice): Negative
- LPS-induced IL-1β protein expression (IEC-6 cells [2]): concentration-dependently inhibited
- LPS-induced IL-6 protein expression (IEC-6 cells [2]): concentration-dependently inhibited
- LPS-induced MMP9 protein expression (IEC-6 cells [2]): concentration-dependently inhibited
- protein expression of iNOS (IEC-6 cells [2]): unaffected
- LPS-induced ERK activation (phosphorylation) (IEC-6 cells [3]; LPS 500 ng/mL 10 min, AzP 5–20 μM): dose-dependently reverse
- LPS-induced Akt phosphorylation (IEC-6 cells [3]; LPS 10 min, AzP 5–20 μM): concentration-dependently reversed
- LPS-induced MEK1/2 phosphorylation (IEC-6 cells [3]; LPS 10 min, AzP 5–20 μM): concentration-dependently reversed
- JNK phosphorylation (IEC-6 cells [3]; LPS, data not shown): unaffected
- p38 phosphorylation (IEC-6 cells [3]; LPS, data not shown): unaffected
- IKK phosphorylation (IEC-6 cells [3]; Western blot): unaffected
- p65 phosphorylation (IEC-6 cells [3]; Western blot): unaffected
- structure of intestinal mucosa, villus length and crypt depth (H&E) (C57BL/6 mice; 250 mg/kg/day group, days 3 and 5): restored
- Relative mean body weight (day 0 = 100%) (C57BL/6 mice; day 5, AzP 50 mg/kg gavage days −1, 0, 1 + cisplatin 11 mg/kg): 78.7 ± 4.7%
- Relative mean body weight (day 0 = 100%) (C57BL/6 mice; day 5, AzP 100 mg/kg gavage days −1, 0, 1 + cisplatin 11 mg/kg): 80.5 ± 3.4%
- Relative mean body weight (day 0 = 100%) (C57BL/6 mice; day 5, AzP 250 mg/kg gavage days −1, 0, 1 + cisplatin 11 mg/kg): 89.1 ± 8.1%
- MCP-1 expression in intestine (IHC) (C57BL/6 mice; day 5, cisplatin 11 mg/kg): dose-dependently reduced
- Serum IL-6 level (ELISA) (C57BL/6 mice; day 5, cisplatin 11 mg/kg): inhibit cisplatin-induced IL-6 production in a dose-dependent manner
- TNF-α expression in intestine (IHC) (C57BL/6 mice; day 5, cisplatin 11 mg/kg): dose-dependently reduced
- histone acetylation (acetyl-histone H3, Western blot) (acetyl-histone H3): elevated histone acetylation
- Ames test result, TA1537 (-S9) ([4]; -S9): Negative
- Revertant colonies per plate (+S9) TA1537 ([4]; AzP 0.00245 mg/plate): 32.3±3
- Revertant colonies per plate (-S9) TA1537 ([4]; AzP 0.00245 mg/plate): 15±0.5
- Revertant colonies per plate (+S9) TA1537 ([4]; AzP 0.0049 mg/plate): 35.3±2.2
- Revertant colonies per plate (-S9) TA1537 ([4]; AzP 0.0049 mg/plate): 10.7±0.9
- Revertant colonies per plate (+S9) TA1537 ([4]; AzP 0.0098 mg/plate): 29.3±2.2
- Revertant colonies per plate (-S9) TA1537 ([4]; AzP 0.0098 mg/plate): 10±0.6
- Revertant colonies per plate (+S9) TA1537 ([4]; AzP 0.0195 mg/plate): 27.3±2.7
- Revertant colonies per plate (-S9) TA1537 ([4]; AzP 0.0195 mg/plate): 10±2
- Revertant colonies per plate (+S9) TA1537 ([4]; AzP 0.0391 mg/plate): 22.1±2.5
- Revertant colonies per plate (-S9) TA1537 ([4]; AzP 0.0391 mg/plate): 11.8±6
- Revertant colonies per plate (+S9) TA1537 ([4]; AzP 0.0781 mg/plate): 16±2.5
- Revertant colonies per plate (-S9) TA1537 ([4]; AzP 0.0781 mg/plate): 12±4.9
- Revertant colonies per plate (+S9) TA1537 ([4]; AzP 0.156 mg/plate): 18±1
- Revertant colonies per plate (-S9) TA1537 ([4]; AzP 0.156 mg/plate): 14.7±2
- Ames test result, TA1537 (|S9) ([4]; second S9 group): Negative
